Non-standard residues stand in square brackets, D forms with d. Residues, ends and D or L forms follow the SMILES beside them.
Columns and labels:
[1] = test system: c-Myc protein levels in PC-3 cells; assay: Western blot analysis of cellular c-Myc protein levels; type: cell-based, human
Procedure: Cells were seeded in 6 well plates at a density of 1×10^5 cells/well and grown to 75% confluence. Cells were treated with [D-Trp]CJ-15,208 at the indicated concentrations. Cells were then harvested as described above, and the cell pellets lysed in RIPA buffer consisting of 10 mM Tris HCl, pH 8.0, 150 mM NaCl, 1 mM EDTA, 1% Triton-X-100, 0.1% SDS, 1% sodium deoxycholate, and a protease inhibitor cocktail #P8340 (Sigma). Cell lysates were centrifuged at 13×1000 rpm for 15 min and the supernatants collected. The total protein concentration was measured in cell lysates using the standard Bradford assay. SDS gel electrophoresis was performed using 4-20% polyacrylamide gel (BioRad). Western blot analysis was performed using the following antibodies: i) c-Myc #5605 (rabbit monoclonal, 1:2000 dilution, (Cell Signaling Technologies)); actin #A2228 (mouse monoclonal, 1:5000 dilution (Sigma)), PP2A #610555 (mouse monoclonal 1:5000 dilution, BD Biosciences), p-PP2A #1155-1 (rabbit polyclonal, 1:5000 dilution (Epitomics)), Erk #9107 (mouse monoclonal, 1:2000 dilution (Cell Signaling Technologies) and p-Erk #4376 (rabbit monoclonal, 1:2000 (Cell Signaling Technologies)); Akt #2920 (mouse monoclonal, 1:2000 dilution (Cell Signaling Technologies)), p-Akt #4056 (rabbit monoclonal, 1:2000 (Cell Signaling Technologies)). The secondary antibodies, goat-anti-mouse #116-035-003 and goat-anti-rabbit #111-035-003, were obtained from Jackson ImmunoResearch Laboratory. Signal densities of the protein bands were determined using ImageJ software (NIH) and normalized to the internal loading control (actin).

[2] = cited from earlier work
[3] = mice, after systemic administration; cited from earlier work
[4] = mice, dose of 60 mg/kg; cited from earlier work
PC-3 cells = type: cell-based, human; conditions: 48 h, read-out: IC50, cell growth
Procedure: Human prostate cancer PC-3 cells were cultured and maintained in EMEM (ATCC), non-prostate HEK (human embryonic kidney) cells were cultured in DMEM, human prostate cancer DU145, LNCaP, 22Rv1 cells were cultured in RPMI 1640 (ATCC), and normal BPH-1 prostate cells and prostate cancer C4-2 cell line were cultured in RPMI 1640 (ATCC), all containing 10% fetal bovine serum (Atlanta Biologicals) and 1% penicillin/streptomycin (Invitrogen). Cells were grown at 37° C. in humidified air with 5% CO2 and passaged every fourth to fifth day following trypsinization with trypsin/EDTA (Invitrogen).^16
PC-3, LNCaP, DU 145, 22Rv1, C4-2, BPH-1, and HEK cells were grown to a density of 2000 cells/well in 96 well plates and treated with [D-Trp]CJ-15,208 or other peptides for 24-72 h in duplicate. Media containing [D-Trp]CJ-15,208 was changed every 24 h. The proliferation of treated cells was determined using the cell proliferation reagent WST-1 (Roche) per the manufacturer's instructions and compared to […] control cells in 1% DMSO in media. After treatment with compound 10 μL of the reagent was added to the well in 100 μL culture media, and the cells incubated at 37° C. for 30 min. The absorbance of the media in each well was measured at […] using a plate reader (BioTek). The percentage cell proliferation was normalized to vehicle treated control cells calculated as: (mean absorbance of sample/mean absorbance of control cells)×100.^38
Each experiment was performed in triplicate unless otherwise stated in the figure legend. GraphPad Prism 5 was used to determine IC50 values. Data represent the mean value+/−SEM. Compound vs. vehicle treated cells in the cell cycle phase and apoptosis experiments (FIGS. 5-8) were compared using the student's t-test, with a two-tailed, unpaired method, using the Prism software. The effects of compound vs. vehicle treatment on protein levels (FIG. 10) were evaluated by one-way ANOVA with Dunnett's test for multiple comparisons.

Q: For “dynorphin A-(1-13) (YGGFLRRIRPKP) [reference compound]”, which “effect on cellular c-Myc protein levels” value ([1]; 1 μM (FIG. 1E lane 2)) is on record?
A: The value was “not decreased”.

Q: Which results are given for `O=C1N[C@@H](Cc2ccccc2)C(=O)N2CCC[C@@H]2C(=O)N[C@@H](Cc2ccccc2)C(=O)N[C@H]1Cc1c[nH]c2ccccc12` [CJ-15,208, cyclo[Phe-D-Pro-Phe-Trp]] (cyclo(FWF[dP]))?
A: activity after oral administration [2]: active after oral administration; blood-brain barrier penetration [3]: appear to penetrate the blood-brain barrier; toxicity [4]: no evidence of toxicity; IC50 (PC-3 cells): 10.1 ± 0.9 µM; decrease of cellular c-Myc protein levels ([1]; 50 μM (FIG. 1E lanes 4 and 5)): 5 fold; reduction of c-Myc protein levels ([1]; PC-3 cells, 10 μM, 48 h): approximately 50%

Q: For `CC[C@H](C)[C@@H]1NC(=O)[C@H](CCCNC(=N)N)NC(=O)[C@@H](NC(=O)[C@H](Cc2ccccc2)NC(=O)CNC(=O)CNC(=O)[C@H](Cc2ccc(O)cc2)NCc2ccccc2)CC(=O)NC[C@@H](C(=O)N[C@@H](CCCNC(=N)N)C(=O)N2CCC[C@H]2C(=O)N[C@@H](CCCCN)C(N)=O)NC1=O` [zyklophin, reference compound], which “effect on cellular c-Myc protein levels” value ([1]; 10 μM (FIG. 1E lane 3)) is on record?
A: The value was “not decreased”.

Q: With `C=CCN1CC[C@]23c4c5ccc(O)c4O[C@H]2C(=O)CC[C@@]3(O)[C@H]1C5` [naloxone, reference compound] as the compound, how does the “effect on the decrease in c-Myc protein levels caused by [D-Trp]CJ-15,208” value ([1]; PC-3 cells, 10 μM naloxone with 10 μM [D-Trp]CJ-15,208 (FIG. 1F lane 4 vs. lane 2)) read?
A: The value was “did not alter the decrease”.

Q: And the “effect on c-Myc protein levels” value ([1]; PC-3 cells, 10 μM, 48 h (FIG. 1F lane 3))?
A: The value was “no effect”.

From US11510964B2, “Macrocyclic peptides to decrease c-Myc protein levels and reduce cancer cell growth” (University of Kansas, priority 2017, dated 2022)
